The values below come from patent US4372970A, “Benzofuran acetic acid esters and their arthropocidal compositions” (Shell Internationale Research Maatschappij B.V., priority 1979, dated 1983).

The subject of one data set is insects. To be noted: about times that of natural pyrethrum; cited from earlier work.
The test system of data set [1] is lettuce, cucumber, dwarf French beans, tomato or broad bean. In words: Phytotoxicity on foliage. The data set is classed as in vivo. As to conditions: 100 p.p.m. on foliage. An excerpt:
Phytotoxicity is an important feature when the insecticide is applied to foliage.

A further data set deals with Tribolium castaneum. The data set is described as follows: Topical activity against Tribolium castaneum (knockdown after 48 hours, LD50, relative to Resmethrin). The format is in vivo. To be noted: Tribolium castaneum adults, from LD50. As to the method: (§1) The insecticidal activities of the compounds of the Examples has been shown by the following tests in four species of insects, namely Aedes aegypti, Musca domestica, Blattella germanica, and Tribolium castaneum.
A 1 μl drop of a solution of test compound in AR acetone was applied topically to adult insects. Knockdown was recorded after 48 hours. Solutions of different concentrations were tested from which the concentration of solution which gives 50% knockdown (LD50) was determined.
(§2) The results are all expressed as activities relative to the activity of Resmathrin (assigned activity=100), determined by the methods described. [formula]

Another data set relates to Plutella xylostella. The data set is described as follows: Knockdown of Plutella xylostella (cabbage leaf dip test). The data set is classed as in vivo. As to conditions: foliar, Plutella xylostella 3rd instar larvae, knockdown after 24 hours, read-out: Plutella % KD at 25.0 ppm. The source says:
(§3) The activities of some of the compounds of the Examples has been shown in the following tests in three species of phytophagous arthropods, namely Megoura vicae, Plutella xylostella, Tetranychus cinnabarinus.
(§4) Aqueous suspensions of test compound were made by adding a solution of test compound in AR acetone to a solution of TWEEN 80 (200 p.p.m.) in water.
A 9.0 cm square of cabbage leaf was dipped for 4 seconds in the aqueous suspension of the test compound, and allowed to dry. The leaf was placed on filter paper in a Petri dish (9.0 cm). Five 3rd instar larvae were placed on the leaf, and the dish was placed in a polythene bag containing a wet cotton-wool pad. Knockdown was recorded after 24 hours.

Another data set relates to Megoura vicae. The data set is described as follows: Knockdown of Megoura vicae (dip test). The format is in vivo. To be noted: Megoura vicae adults, knockdown after 24 hours.
Text: as §3, §4
Adult insects were dipped individually for 4 seconds in the aqueous suspension of test compound and then placed on a filter paper in a Petri dish (9.0 cm diameter) with a p.t.f.e. rim. A 5.0 cm long piece of broad bean stem was added and the lid was put on. Knockdown was recorded after 24 hours.

The next data set deals with Blattella germanica. The data set is described as follows: Topical activity against Blattella germanica (24 hours, LC50, relative to Resmethrin). The data set is classed as in vivo. As to conditions: Blattella germanica 1-4 week old adult males, from LC50. As to the method:
as §1
A 2 μl drop of a solution of the test compound in AR acetone was applied between the rear coxae of 1-4 week old adult males. Knockdown was recorded after 24 hours. Solutions of different concentration were tested from which the concentration of solution which gives 50% kill (LC50) was determined.
as §2

The nature of data set [2]: Photostability of a deposit exposed to a light source. The format is physicochemical. To be noted: times greater than Resmethrin. An excerpt: Photostability is an important feature when the insecticide is applied to foliage. […] A deposit of selected Examples and Resmethrin was exposed to a light source and tested at increasing time intervals.
Data set [3] has as its system Musca domestica. In words: Topical activity against Musca domestica with synergist piperonyl butoxide (24 hours, LC50, relative to Resmethrin). To be noted: Musca domestica 3-day old adult females, with 0.5% w/v piperonyl butoxide, from LC50. The data set is classed as in vivo. As to the method:
as §1
(§5) (i) A 1 μl drop of a solution of test compound in AR acetone (high purity acetone) was applied to the dorsal thorax of 3-day old adult females. Knockdown was recorded after 24 hours. Solutions of different concentration were tested from which the concentration of solution and therefore the amount of compound which gives 50% kill (LC50) was determined.
(ii) Similar tests were carried out with the amendment that to each test solution, 0.5% w/v of commercial insecticide synergist, piperonyl butoxide, was added.
as §2

The next data set concerns Aedes aegypti. The data set is described as follows: Larvicidal activity against Aedes aegypti (kill after 24 hours, LC50, relative to Resmethrin). The format is in vivo. As to conditions: Aedes aegypti 3 day old larvae, from LC50. As to the method:
as §1
A 0.2 cm^3 sample of a solution of test compound in AR acetone was applied to water (200 cm^3) containing 20 (3 day old) larvae. Kill was recorded after 24 hours. Solutions of different concentration were tested from which the concentration of solution which gives 50% kill (LC50) was determined.
as §2

The next data set deals with Tetranychus cinnabarinus. The data set is described as follows: Activity against Tetranychus cinnabarinus (dwarf French bean leaf dip test). The format is in vivo. To be noted: foliar, Tetranychus cinnabarinus adult mites, 48 hours, read-out: Tetranychus % KD at 500.0 ppm.
Text: as §3, §4
The two primary leaves of dwarf French beans were reduced to 2.5 cm squares, and they were infested with ca. 20 adult mites. The leaves were then dipped for 4 seconds in the aqueous suspension of the test compound and allowed to dry. Adult mortality was recorded after 48 hours.

The test system of data set [4] is Musca domestica. In words: Topical activity against Musca domestica, compound alone (24 hours, LC50, relative to Resmethrin). The data set is classed as in vivo. To be noted: Musca domestica 3-day old adult females, without synergist, from LC50. As to the method: as §1, §5, §2

With `CC(C)=CC1C(C(=O)OCc2coc(Cc3ccccc3)c2)C1(C)C` (stereo not shown) [Resmethrin, 5-benzyl-3-furylmethylchrysanthemumate], in the data set with insects, the “activity relative to natural pyrethrum” value is “about 20 times”.
With `CC(C)C(C(=O)OC(C#N)c1cccc(Oc2ccccc2)c1)c1ccc(Cl)cc1` (stereo not drawn) [fenvalerate, α-cyano-3-phenoxy-benzyl 2-(4-chlorophenyl)-3-methylbutyrate], the phytotoxicity entry in data set [1] is reported as “phytotoxicity was observed”.
For the compound `CC(C)C(C(=O)OC(C#N)c1cccc(Oc2ccccc2)c1)c1ccc2ccoc2c1` (stereo not drawn) [Example 2, α-Cyano-m-phenoxybenzyl α-isopropylbenzofuran-6-acetate], the “Activity Relative to Resmethrin = 100, Tribolium” value in the data set with Tribolium castaneum turned out to be 583. Also, the mortality at 25 ppm with Plutella xylostella stood at 97.5%. In the data set with Megoura vicae, the “Megoura % KD at 1.0 ppm” value is given as 97.5%. Also, the “Activity Relative to Resmethrin = 100, Blattella” value in the data set with Blattella germanica is on record as 459. Also, the “photostability half-life relative to Resmethrin” value in data set [2] was 17.5 times. Moreover, the “Activity Relative to Resmethrin = 100, Musca with Synergist” value in the data set with Musca domestica [3] worked out at 606. Also, the “Activity Relative to Resmethrin = 100, Aedes” value with Aedes aegypti was found to be 286. The mortality at 500 ppm with Tetranychus cinnabarinus was 83.7%. The “Activity Relative to Resmethrin = 100, Musca Alone” value with Musca domestica [4] was 123.
On to `CC(C)C(C(=O)OC(C#N)c1cccc(Oc2ccccc2)c1)c1ccc2sccc2c1` (stereo not drawn) [Example 4, α-Cyano-m-phenoxybenzyl α-isopropylbenzo(b)thiophene-5-acetate], for which the “Activity Relative to Resmethrin = 100, Blattella” value in the data set on Blattella germanica is 62. In addition, the “photostability half-life relative to Resmethrin” value in data set [2] turned out to be 21.5 times. Further, the “Activity Relative to Resmethrin = 100, Musca with Synergist” value in the data set with Musca domestica [3] is recorded as 400. Also, in the data set on Aedes aegypti, the “Activity Relative to Resmethrin = 100, Aedes” value was 105. The “Activity Relative to Resmethrin = 100, Musca Alone” value with Musca domestica [4] was found to be 16.
